Results on five compounds are retold here after US6610709B1, “2-n-substituted or unsubstituted-2-amino-5-methylpiperidine-3,4-diols and processes for the preparation thereof” (Zaidan Hojin Biseibutsu Kagaku Kenkyu Kai, priority 1999, dated 2003).

One assay concerns the target T1, α-L-fucosidase (from bovine liver) (Bos taurus, UniProt Q2KIM0).
T1 construct: a product of Sigma Company, originated from bovine liver; purchased Sigma; host or cells: bovine liver
T1 sequence (Q2KIM0 23-468): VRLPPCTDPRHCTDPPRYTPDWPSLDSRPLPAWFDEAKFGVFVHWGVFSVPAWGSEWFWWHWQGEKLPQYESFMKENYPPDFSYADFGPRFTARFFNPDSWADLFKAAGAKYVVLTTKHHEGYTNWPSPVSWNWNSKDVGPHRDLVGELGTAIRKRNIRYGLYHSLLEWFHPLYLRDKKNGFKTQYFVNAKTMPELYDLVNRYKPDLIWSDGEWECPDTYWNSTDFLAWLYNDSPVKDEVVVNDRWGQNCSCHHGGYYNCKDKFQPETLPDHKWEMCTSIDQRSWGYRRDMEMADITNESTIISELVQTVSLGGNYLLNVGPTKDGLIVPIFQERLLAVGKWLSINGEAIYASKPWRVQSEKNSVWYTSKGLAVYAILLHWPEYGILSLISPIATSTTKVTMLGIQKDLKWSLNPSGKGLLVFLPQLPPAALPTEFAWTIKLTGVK
The experiment in a line: α-fucosidase-inhibitory activity assay (Test Example 1). Type of assay: biochemical. Conditions: substrate p-nitrophenyl α-L-fucopyranoside, citrate-phosphate buffer pH 6.3, 37° C., 60 minutes, read-out: 50% Inhibiory Concentration (IC50) Enzyme A (converted). The method, then:
This Test Example is a test example for determining the α-fucosidase-inhibitory activity of the compound of the general formula (I) according to this invention.
Assay of the α-fucosidase-inhibitory activity was conducted according to a modification of the method described in the “Journal of Biological Chemistry”, 252, pp.5194-5200 (1977).
(§1) Thus, 0.5 mL of 0.025M citrate-phosphate buffer (pH 6.3), 0.1 mL of the same buffer containing 1.5 mM p-nitrophenyl α-L-fucopyranoside dissolved therein, and 0.1 mL of either water or an aqueous solution containing as the tested compound any one of the compounds of the formulae (Ia), (Ib), (Ic) and (Id) according to this invention were mixed with each other and pre-incubated in a 96-well titer plate at 37° C. for 10 minutes. After the completion of the pre-incubation, to the pre-incubated mixture was added 0.01 mL of 0.025M citrate-phosphate buffer containing α-L-fucosidase (a product of Sigma Company, originated from bovine liver) dissolved therein, and thereafter the enzymatic reaction was conducted at 37° C. for 60 minutes. After the enzymatic reaction, to the resulting reaction solution was added 1.0 mL of 0.2M glycine-sodium hydroxide buffer (pH 10.5), in order to terminate the enzymatic reaction. Thereafter, the absorbance (designated as “a”) of light at 405 nm of the resulting reaction solution was measured. Concurrently, measurement was made of the absorbance (designated as “b”) of light at 405 nm of the reaction solution as obtained in the control test where the enzymatic reaction was conducted without addition of the test compound. Further, measurements were made of the absorbance (designated as “a′”) and the absorbance (designated as “b′”) of light at 405 nm of the reaction solutions as obtained in the blank tests where the enzymatic reaction had not been conducted in the assay test, and also in the control test for the blank tests, respectively.
(§2) The rate of inhibition to α-L-fucosidase was calculated by the equation: […]
As for `C[C@@H]1CN[C@@H](N2C(=O)c3ccccc3C2=O)[C@H](O)[C@@H]1O` [Compound of the Formula (Id), (2S,3S,4R,5R)-2-phthalimido-5-methylpiperidine-3,4-diol], the IC50 is 0.0145 µM.
For `C[C@@H]1CN[C@@H](N)[C@H](O)[C@@H]1O` [Compound of the Formula (Ie), (2R,3S,4R,5R)-2-amino-5-methylpiperidine-3,4-diol], the IC50 is 0.0205 µM.
For `C[C@@H]1CN[C@@H](NC(=O)C(Cl)(Cl)Cl)[C@H](O)[C@@H]1O` [Compound of the Formula (Ic), (2S,3S,4R,5R)-2-trichloroacetamido-5-methyl-piperidine-3,4-diol], the IC50 was 0.0103 µM.
On the same count and under the same terms, with `C[C@@H]1CN[C@@H](NC(=O)C(F)(F)F)[C@H](O)[C@@H]1O` [Compound of the Formula (Ib), (2S,3S,4R,5R)-2-trifluoroacetamido-5-methyl-piperidine-3,4-diol] the figure was 0.0124 µM.
For the compound `CC(=O)N[C@@H]1NC[C@@H](C)[C@@H](O)[C@H]1O` [Compound of the Formula (Ia), (2S,3S,4R,5R)-2-acetamido-5-methylpiperidine-3,4-diol], the IC50 was 0.584 µM.

For the next assay, the target named is β-D-glucosidase (from almonds). The assay is described as follows: β-glucosidase-inhibitory activity assay (Test Example 2). It is filed as biochemical, almond. To be noted: substrate p-nitrophenyl β-D-glucoside, same manner as Test Example 1. The method, then: as §1, §2
This Test Example is a test example for determining the α-glucosidase or β-glucosidase-inhibitory activity of the compounds according to this invention.
The evaluation of the α- or β-glucosidase-inhibitory activity was conducted according to a modification of the method described in the “Agricultural and Biological Chemistry”, 26, p.203 (1962). Namely, the test was conducted in the same manner as the test for the enzyme-inhibitory activity described in Test Example 1, except that either α-glucosidase originated from yeast, or β-glucosidase originated from almond (both enzymes are products of Sigma Company) was used as the glycosidase enzyme, and that p-nitrophenyl α-D-glucoside or p-nitrophenyl β-D-glucoside was used as the substrate. Furthermore, the enzyme-inhibitory activity was measured in the same manner as in Test Example 1, and the 50% inhibitions of the tested compounds against the enzymes were calculated, respectively.
As to `C[C@@H]1CN[C@@H](N2C(=O)c3ccccc3C2=O)[C@H](O)[C@@H]1O` [Compound of the Formula (Id), (2S,3S,4R,5R)-2-phthalimido-5-methylpiperidine-3,4-diol], the “50% Inhibiory Concentration (IC50) Enzyme C” value (“50% Inhibiory Concentration” for short) worked out at 60 mg/L.
On to `C[C@@H]1CN[C@@H](N)[C@H](O)[C@@H]1O` [Compound of the Formula (Ie), (2R,3S,4R,5R)-2-amino-5-methylpiperidine-3,4-diol], for which the “50% Inhibiory Concentration” value was determined as 50 mg/L.
Turning to `C[C@@H]1CN[C@@H](NC(=O)C(Cl)(Cl)Cl)[C@H](O)[C@@H]1O` [Compound of the Formula (Ic), (2S,3S,4R,5R)-2-trichloroacetamido-5-methyl-piperidine-3,4-diol], the “50% Inhibiory Concentration” value came out at 50 mg/L.
Take `C[C@@H]1CN[C@@H](NC(=O)C(F)(F)F)[C@H](O)[C@@H]1O` [Compound of the Formula (Ib), (2S,3S,4R,5R)-2-trifluoroacetamido-5-methyl-piperidine-3,4-diol]: the “50% Inhibiory Concentration” value amounted to 55 mg/L.
Same read-out and setting: with `CC(=O)N[C@@H]1NC[C@@H](C)[C@@H](O)[C@H]1O` [Compound of the Formula (Ia), (2S,3S,4R,5R)-2-acetamido-5-methylpiperidine-3,4-diol] the figure was 2.3 mg/L.
